# Assay results reported in PMC5441580, “GPR40 partial agonist MK-2305 lower fasting glucose in the Goto Kakizaki rat via suppression of endogenous glucose production” (PLoS ONE, 2017).
# Several values for one entry are separate records, joined by “and”; a condition that tells them apart may be missing. Equal values may be shown once.
# Tests used:
# Rat PPARδ = molecular target: T1, Rat PPARδ (Rattus norvegicus, UniProt Q62879); assay: cell-based nuclear receptor profiling (Indigo Biosciences), PPARδ
# T1 sequence (Q62879 1-440): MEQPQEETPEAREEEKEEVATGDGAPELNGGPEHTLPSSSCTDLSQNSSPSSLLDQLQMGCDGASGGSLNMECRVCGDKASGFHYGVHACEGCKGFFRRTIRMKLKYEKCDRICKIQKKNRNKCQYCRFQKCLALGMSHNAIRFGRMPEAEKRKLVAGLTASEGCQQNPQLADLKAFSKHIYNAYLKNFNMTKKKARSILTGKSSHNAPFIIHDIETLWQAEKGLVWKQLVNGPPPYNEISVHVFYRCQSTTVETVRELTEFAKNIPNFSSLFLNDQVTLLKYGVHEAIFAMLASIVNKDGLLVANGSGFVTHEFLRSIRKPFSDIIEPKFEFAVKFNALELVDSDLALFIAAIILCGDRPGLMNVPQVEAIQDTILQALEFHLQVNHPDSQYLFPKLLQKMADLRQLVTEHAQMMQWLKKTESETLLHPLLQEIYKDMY
# Description: Rat PPARα, PPARδ, and PPARγ activities were determined by Indigo Biosciences (State College, PA) cell-based nuclear receptor profiling service.
# [1] = protein binding assay in mouse plasma; type: in vitro ADME; conditions: read-out: free fraction
# WKY rats = assay: endogenous glucose production in vivo, 2H/13C dual tracer, acute treatment, WKY rats; design: species or system rat
# Description: [The procedure below names another organism; the source lists this organism under the same test.] To evaluate whether MK-2305 treatment produced an effect on EGP in vivo, a ^2H/^13C dual tracer approach was used to calculate EGP and its contributing sources. On the day of the study, GK rats were bled via tail snip, and blood glucose was measured via glucometer. Ambient glucose was measured at 8 A.M. and used to sort animals into treatment groups (n = 8 per group). 0.9% NaCl salinated D2O (Sigma-Aldrich, St. Louis, MO) was administered to all animals via IP injection at dose volume of 20 ml/kg. Animals were then placed in clean cages and food was removed. After a 5 hour fast, blood glucose was measured and animals were dosed PO with MK-2305 at 10 mg/kg (5 ml/kg) or vehicle (0.5% methylcellulose) immediately followed by 50 mg/kg [U-^13C] glucose (Sigma-Aldrich) IP at 5 ml/kg. Blood was collected via tail snip at time points from 60–150 min post treatment to measure blood glucose as well as endogenous (^12C-glucose) and exogenous (^13C-glucose) via GCMS. Following the last tail blood collection, rats were anesthetized with isoflurane and cardiac blood was collected into K2EDTA tubes (Becton, Dickinson and Co., Franklin Lakes, NJ).
# The serially collected blood samples were analyzed for ^13C-glucose enrichment using GC-MS analysis. The % ^13C glucose enrichments were then combined with the total glucose readings to calculate the concentration of ^13C-glucose, and these values were modeled with a two-compartment model of whole body glucose metabolism to calculate the average EGP for the period from 0–150 minutes.
# Terminal blood samples were analyzed for relative ^2H enrichment in plasma glucose using the monoacetone glucose method. Briefly, samples were extracted with 70% perchloric acid and centrifuged at 25,000 rcf for 10 min at 4°C. The supernatant was collected and the pH was adjusted to 6–8 using KOH. The samples were then lyophilized overnight. To convert plasma glucose to monoacetone glucose (MAG), acetone and concentrated sulfuric acid were added to the lyophilized samples and stirred for 4 hours at room temperature. Water was then added and the pH adjusted to 2.0 with 3M Na2CO3. Samples were stirred moderately for 18 hours at room temperature, the pH was adjusted to 7 with 3M Na2CO3, and the samples were completely dried by speed vacuum concentration. The resulting MAG samples were then extracted in hot ethyl acetate, dried overnight under a stream of N2 gas, purified using Discovery DSC-18 SPE columns (6 ml, 1 g bed weight), and freeze dried. Purified MAG samples were solubilized in 180 μl 90% acetonitrile for ^2H NMR analysis which was performed using the lock channel of a 950 MHz Bruker NMR spectrometer (David H Murdock Research Institute, Kannapolis, NC). Acquisition parameters were as follows: 90° pulse, D1 = 1 s, ^1H broadband decoupling, NS = 3600 averages, acquisition time ~ 1 hr. The ^2H NMR spectra of the MAG samples were then analyzed using in–house developed Matlab (The Mathworks Inc, Natick, MA) to model the NMR peaks with a Lorentzian line shape, and the results were used to calculate integrals for each of the seven NMR resonances in the MAG spectrum. Peaks 2, 5, and 6s were then used to calculate the relative sources of EGP (i.e. gluconeogenesis from TCA cycle substrates, gluconeogenesis from triose phosphates, and glycogenolysis) and these values were combined with the total EGP measurement to calculate absolute fluxes of glucose production.
# [2] = acute treatment, 10 mg/kg, individual animals
structure (smiles),measurement,setting,value
O=C1NC(=O)C(C2CCOc3cc(Oc4ccc(C(F)(F)F)cc4Cl)ccc32)S1 (stereo not drawn) [MK-2305],EC50,Rat PPARδ,> 10 µM
same,% Activation,Rat PPARδ; @ 10 μM,-0.1 @ 10 μM % and -0.08%
same,% Effect,Rat PPARδ; Dose 0.309 nM,-0.01%
same,% Effect,Rat PPARδ; Dose 0.981 nM,0.01%
same,% Effect,Rat PPARδ; Dose 3.11 nM,-0.001%
same,% Effect,Rat PPARδ; Dose 9.85 nM,-0.01%
same,% Effect,Rat PPARδ; Dose 31.2 nM,-0.01%
same,% Effect,Rat PPARδ; Dose 99 nM,0.01%
same,% Effect,Rat PPARδ; Dose 314 nM,0.00%
same,% Effect,Rat PPARδ; Dose 995 nM,-0.02%
same,% Effect,Rat PPARδ; Dose 3155 nM,-0.04%
same,% Effect,Rat PPARδ; Dose 10000 nM,-0.08%
same,fraction unbound,[1],0.026
same,effects on EGP,WKY rats; acute,not statistically significant
same,"Glucose Production, GNG Glycerol",WKY rats; [2],2.7 umol/kg/min (2×) and 2.4 umol/kg/min and 1.6 umol/kg/min
same,"Glucose Production, GNG TCA",WKY rats; [2],8 µmol/kg/min and 8.7 µmol/kg/min and 7.8 µmol/kg/min and 6.4 µmol/kg/min
same,"Glucose Production, GNG Total",WKY rats; [2],10.7 µmol/kg/min and 11.2 µmol/kg/min and 10.5 µmol/kg/min and 8.1 µmol/kg/min
same,"Glucose Production, Glycogenolysis",WKY rats; [2],6.9 µmol/kg/min and 4.7 µmol/kg/min and 6.8 µmol/kg/min and 3.4 µmol/kg/min
